For this test, the target named is T1, human cloned 5-HT6 receptors (Homo sapiens, UniProt P50406).
T1 construct: expressed in transfected cells; host or cells: Hela cells
The test can be described thus: 5-HT6 binding affinity, [3H]-LSD displacement on Hela cell membranes. The note with it: [3H]-LSD 3.0 nM; membranes of Hela cells expressing human cloned 5-HT6 receptors; 120 min at room temperature. The protocol:
The affinity of test compounds for the serotonin 5-HT6 receptor is evaluated in the following manner. Cultured Hela cells expressing human cloned 5-HT6 receptors are harvested and centrifuged at low speed (1,000×g) for 10.0 min to remove the culture media. The harvested cells are suspended in half volume of fresh physiological phosphate buffered saline solution and recentrifuged at the same speed. This operation is repeated. The collected cells are then homogenized in ten volumes of 50 mM Tris.HCl (pH 7.4) and 0.5 mM EDTA. The homogenate is centrifuged at 40,000×g for 30.0 min and the precipitate is collected. The obtained pellet is resuspended in 10 volumes of Tris.HCl buffer and recentrifuged at the same speed. The final pellet is suspended in a small volume of Tris.HCl buffer and the tissue protein content is determined in aliquots of 10-25 μl volumes. Bovine Serum Albumin is used as the standard in the protein determination according to the method described in Lowry et al., J. Biol. Chem., 193:265 (1951). The volume of the suspended cell membranes is adjusted to give a tissue protein concentration of 1.0 mg/ml of suspension. The prepared membrane suspension (10 times concentrated) is aliquoted in 1.0 ml volumes and stored at −70° C. until used in subsequent binding experiments.
Binding experiments are performed in a 96 well microtiter plate format, in a total volume of 200 μl. […] The test compounds are added in 20.0 μl volume.
The reaction is allowed to proceed in the dark for 120 min at room temperature, at which time, the bound ligand-receptor complex is filtered off on a 96 well unifilter with a Packard Filtermate® 196 Harvester. The bound complex caught on the filter disk is allowed to air dry and the radioactivity is measured in a Packard TopCount® equipped with six photomultiplier detectors, after the addition of 40.0 μl Microscint®-20 scintillant to each shallow well. The unifilter plate is heat-sealed and counted in a PackardTopCount® with a tritium efficiency of 31.0%.
Binding in the presence of varying concentrations of test compound is expressed as a percentage of specific binding in the absence of test compound. The results are plotted as log % bound versus log concentration of test compound. […] A linear regression line of data points is plotted, from which the IC50 value is determined and the Ki value is determined based upon the following equation: Ki=IC50/(1+L/KD) where L is the concentration of the radioactive ligand used and KD is the dissociation constant of the ligand for the receptor, both expressed in nM.

Structures are written as SMILES. pKi: −log10 of the molar value.

Usually pKi stands for the negative decadic logarithm of the Ki, by convention in mol/L. Read a high pKi as a low Ki.

T1 sequence (P50406 whole entry): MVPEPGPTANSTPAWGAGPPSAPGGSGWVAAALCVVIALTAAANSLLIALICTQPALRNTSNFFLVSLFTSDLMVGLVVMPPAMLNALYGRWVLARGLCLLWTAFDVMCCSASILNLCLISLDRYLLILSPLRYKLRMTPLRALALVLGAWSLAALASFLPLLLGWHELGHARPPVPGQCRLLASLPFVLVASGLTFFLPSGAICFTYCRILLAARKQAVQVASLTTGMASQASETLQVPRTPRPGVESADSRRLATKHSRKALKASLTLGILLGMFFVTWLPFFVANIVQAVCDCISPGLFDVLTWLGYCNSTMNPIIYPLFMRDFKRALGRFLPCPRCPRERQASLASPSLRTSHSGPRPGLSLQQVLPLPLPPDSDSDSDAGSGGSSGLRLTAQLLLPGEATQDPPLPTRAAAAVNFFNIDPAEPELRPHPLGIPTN

In turn, `CN1CCC(c2cn(S(=O)(=O)c3ccc(F)cc3)c3ccccc23)C1` (stereo not drawn) [Example 4, 1-(4-fluorophenylsulfonyl)-3-(1-methyl-pyrrolidin-3-yl)-1H-indole] showed a negative-log Ki (pKi) of 8.70.
Molecule `CN1CCC(c2cn(S(=O)(=O)c3ccc(Cl)cc3)c3ccccc23)C1` (stereo not drawn) [Example 6, 1-(4-chlorophenylsulfonyl)-3-(1-methylpyrrolidin-3-yl)-1H-indole] showed a pKi of 9.00.
As for `CN1CCC(c2cn(S(=O)(=O)c3ccc4ccccc4c3)c3ccccc23)C1` (stereo not drawn) [Example 8, 1-(naphth-2-ylsulfonyl)-3-(1-methylpyrrolidin-3-yl)-1H-indole], the pKi is 8.52.
Molecule `CN1CCC(c2cn(S(=O)(=O)c3ccc(N)cc3)c3ccccc23)C1` (stereo not drawn) [Example 9, 1-(4-aminophenylsulfonyl)-3-(1-methylpyrrolidin-3-yl)-1H-indole] gave a pKi of 9.00.
As for `COc1ccc(S(=O)(=O)n2cc(C3CCN(C)C3)c3ccccc32)cc1OC` (stereo not drawn) [Example 10, 1-(3,4-dimethoxyphenylsulfonyl)-3-(1-methylpyrrolidin-3-yl)-1H-indole], the pKi is 8.30.
In the case of `CN1CCC(c2cn(S(=O)(=O)c3ccc(Cl)c(Cl)c3)c3ccccc23)C1` (stereo not drawn) [Example 11, 1-(3,4-dichlorophenylsulfonyl)-3-(1-methylpyrrolidin-3-yl)-1H-indole], the pKi was 8.52.
Consider `CN1CCC(c2cn(S(=O)(=O)c3cc(Cl)c(Cl)s3)c3ccccc23)C1` (stereo not drawn) [Example 12, 1-[(4,5-dichlorothien-2-yl)sulfonyl]-3-(1-methyl-pyrrolidin-3-yl)-1H-indole], for which the pKi was 8.40.
Then `CN1CCC(c2cn(S(=O)(=O)c3ccccc3Br)c3ccccc23)C1` (stereo not drawn) [Example 13, 1-(2-bromophenylsulfonyl)-3-(1-methylpyrrolidin-3-yl)-1H-indole], with 9.00; and `CN1CCC(c2cn(S(=O)(=O)c3ccc(I)cc3)c3ccccc23)C1` (stereo not drawn) [Example 16, 1-(4-iodophenylsulfonyl)-3-(1-methylpyrrolidin-3-yl)-1H-indole], with 9.00.
`CN1CCC(c2cn(S(=O)(=O)c3ccccc3I)c3ccccc23)C1` (stereo not drawn) [Example 17, 1-(2-iodophenylsulfonyl)-3-(1-methylpyrrolidin-3-yl)-1H-indole] gave a negative logarithm of the Ki (pKi) of 8.70.
As to `Cc1ccc(S(=O)(=O)n2cc(C3CCN(Cc4ccccc4)C3)c3ccccc32)cc1` (stereo not drawn) [Example 18, 3-(1-benzylpyrrolidin-3-yl)-1-(4-methylphenylsulfonyl)-1H-indole], the negative-log Ki (pKi) was 8.10.
In turn, `Nc1ccc(S(=O)(=O)n2cc(C3CCN(Cc4ccccc4)C3)c3ccccc32)cc1` (stereo not drawn) [Example 20, 1-(4-aminophenylsulfonyl)-3-(1-benzylpyrrolidin-3-yl)-1H-indole] gave a negative-log Ki (pKi) of 9.00.
Turning to `O=S(=O)(c1ccc(Cl)c(Cl)c1)n1cc(C2CCN(Cc3ccccc3)C2)c2ccccc21` (stereo not drawn) [Example 21, 3-(1-benzylpyrrolidin-3-yl)-1-(3,4-dichlorophenyl-sulfonyl)-1H-indole], the negative-log Ki (pKi) is 7.82.
`O=S(=O)(c1ccccc1Br)n1cc(C2CCN(Cc3ccccc3)C2)c2ccccc21` (stereo not drawn) [Example 22, 3-(1-benzylpyrrolidin-3-yl)-1-(2-bromophenylsulfonyl)-1H-indole]: the negative logarithm of the Ki (pKi) is 7.85.
Consider `Cc1nc(N)sc1S(=O)(=O)n1cc(C2CCN(Cc3ccccc3)C2)c2ccccc21` (stereo not drawn) [Example 23, 5-[3-(1-benzylpyrrolidin-3-yl)-indole-1-sulfonyl]-4-methyl-thiazol-2-ylamine], for which the negative logarithm of the Ki (pKi) is 8.52.
In turn, `O=S(=O)(c1ccc(Br)s1)n1cc(C2CCN(Cc3ccccc3)C2)c2ccccc21` (stereo not drawn) [Example 24, 3-(1-benzylpyrrolidin-3-yl)-1-[(5-bromothien-2-yl)sulfonyl]-1H-indole] gave a negative logarithm of the Ki (pKi) of 8.05.
In turn, `O=S(=O)(c1ccccc1)n1cc(C2CCCNC2)c2ccccc21` (stereo not drawn) [Example 31, 1-Benzenesulfonyl-3-piperidin-3-yl-1H-indole] showed a pKi of 8.70.
Then `CC(C)c1ccc(S(=O)(=O)n2cc(C3CCCNC3)c3ccccc32)cc1` (stereo not drawn) [Example 32, 1-(4-isopropyl-benzenesulfonyl)-3-piperidin-3-yl-1H-indole], with 8.30.
Then `O=S(=O)(c1ccc(Cl)s1)n1cc(C2CCCNC2)c2ccccc21` (stereo not drawn) [Example 33, 1-(5-chloro-thiophene-2-sulfonyl)-3-piperidin-3-yl-1H-indole], with 8.52; and `O=S(=O)(c1cccc(Cl)c1)n1cc(C2CCCNC2)c2ccccc21` (stereo not drawn) [Example 34, 1-(3-chloro-benzenesulfonyl)-3-piperidin-3-yl-1H-indole], with 8.70.
For the molecule `O=S(=O)(c1ccc(F)c(F)c1)n1cc(C2CCCNC2)c2ccccc21` (stereo not drawn) [Example 35, 1-(3,4-difluoro-benzenesulfonyl)-3-piperidin-3-yl-1H-indole], the negative-log Ki (pKi) is 8.15.
In the case of `COc1ccc(S(=O)(=O)n2cc(C3CCCNC3)c3ccccc32)cc1` (stereo not drawn) [Example 37, 1-(4-methoxy-benzenesulfonyl)-3-piperidin-3-yl-1H-indole], the negative-log Ki (pKi) is 8.00.
As for `O=S(=O)(c1ccc(C(F)(F)F)cc1)n1cc(C2CCCNC2)c2ccccc21` (stereo not drawn) [Example 38, 1-(4-trifluoromethy-benzenesulfonyl)-3-piperidin-3-yl-1H-indole], the negative logarithm of the Ki (pKi) was 8.00.
Take `Cc1ccc(S(=O)(=O)n2cc(C3CCCNC3)c3ccccc32)cc1Cl` (stereo not drawn) [Example 39, 1-(3-chloro-4-methyl-benzenesulfonyl)-3-piperidin-3-yl-1H-indole]: the pKi was 8.22.
In the case of `O=S(=O)(c1ccc2ccccc2c1)n1cc(C2CCCNC2)c2ccccc21` (stereo not drawn) [Example 41, 1-(2-naphthylenesulfonyl)-3-piperidin-3-yl-1H-indole], the negative-log Ki (pKi) is 8.10.
Consider `O=S(=O)(c1ccc(Cl)s1)n1cc(C2CCCNC2)c2cccnc21` (stereo not drawn) [Example 47, 1-(5-chloro-thiophene-2-sulfonyl)-3-piperidin-3-yl-1H-pyrrolo[2,3-b]pyridine], for which the negative-log Ki (pKi) was 8.15.
In turn, `O=S(=O)(c1cccc(Cl)c1)n1cc(C2CCCNC2)c2cccnc21` (stereo not drawn) [Example 48, 1-(3-chloro-benzenesulfonyl)-3-piperidin-3-yl-1H-pyrrolo[2,3-b]pyridine] showed a negative-log Ki (pKi) of 8.22.

The record behind these values is US6903112B2, “Heterocyclylindazole and -azaindazole compounds as 5-hydroxytryptamine-6 ligands” (Wyeth, priority 2000, dated 2005).
